In patent US11116757B2 (priority 2015, dated 2021):
Values after ≈ are worked out from the molar mass of the structure shown. “Also recorded” adds a separate entry of the source. Read-outs that look alike come from different tables or passages of the source.

Columns and labels:
[1] = biological target: Dcn1P-mediated co-E3 activity (Homo sapiens (Human), UniProt Q96GG9); experiment: Pulse-chase neddylation assay (NEDD8 transfer from UBC12 to CUL2CTD); type: biochemical; conditions: for inhibition of labeled NEDD8 transfer from UBC12 to CUL2CTD-RBX2: pulse-chase neddylation assay
Dcn1P-mediated co-E3 activity, sequence (Q96GG9 whole entry, looked up): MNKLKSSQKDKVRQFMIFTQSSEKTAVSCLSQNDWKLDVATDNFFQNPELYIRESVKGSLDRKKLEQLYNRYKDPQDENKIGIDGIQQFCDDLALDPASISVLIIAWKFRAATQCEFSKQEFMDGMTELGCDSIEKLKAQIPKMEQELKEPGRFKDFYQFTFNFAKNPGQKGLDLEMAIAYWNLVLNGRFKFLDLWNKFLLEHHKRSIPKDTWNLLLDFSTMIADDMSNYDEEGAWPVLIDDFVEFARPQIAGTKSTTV
Dcn1P-mediated co-E3 activity, sequence (Q13617 whole entry partner, looked up): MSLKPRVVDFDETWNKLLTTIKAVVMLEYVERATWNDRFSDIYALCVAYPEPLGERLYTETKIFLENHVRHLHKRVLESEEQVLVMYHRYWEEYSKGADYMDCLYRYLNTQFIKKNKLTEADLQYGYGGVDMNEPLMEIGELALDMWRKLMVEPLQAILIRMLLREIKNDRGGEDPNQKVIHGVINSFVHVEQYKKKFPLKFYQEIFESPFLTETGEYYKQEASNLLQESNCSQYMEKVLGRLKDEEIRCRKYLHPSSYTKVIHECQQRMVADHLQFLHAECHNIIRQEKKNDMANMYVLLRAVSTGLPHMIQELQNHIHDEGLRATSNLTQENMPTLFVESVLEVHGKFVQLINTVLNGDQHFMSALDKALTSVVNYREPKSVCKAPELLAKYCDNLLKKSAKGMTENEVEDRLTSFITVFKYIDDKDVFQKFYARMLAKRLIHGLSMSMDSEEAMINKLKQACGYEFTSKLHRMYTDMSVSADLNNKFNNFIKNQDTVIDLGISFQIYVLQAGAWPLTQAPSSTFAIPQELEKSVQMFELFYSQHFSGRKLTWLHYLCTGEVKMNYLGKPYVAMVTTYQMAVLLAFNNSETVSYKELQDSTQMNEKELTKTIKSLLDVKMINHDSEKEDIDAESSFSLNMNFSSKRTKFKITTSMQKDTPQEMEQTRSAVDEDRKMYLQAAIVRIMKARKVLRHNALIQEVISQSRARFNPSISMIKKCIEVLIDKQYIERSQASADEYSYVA
Dcn1P-mediated co-E3 activity, sequence (Q9UBF6 whole entry partner, looked up): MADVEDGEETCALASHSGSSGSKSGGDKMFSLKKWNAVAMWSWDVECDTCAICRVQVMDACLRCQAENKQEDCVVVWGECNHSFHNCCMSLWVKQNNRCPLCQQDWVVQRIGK
Method: Compound inhibition of Dcn1^P-mediated co-E3 activity was monitored using pulse-chase assays to exclusively monitor effects of Nedd8 transfer to Cul2 without sensing earlier steps in the reaction. […] Load reactions were quenched by the addition of EDTA to 50 mM and incubated on ice for 5 minutes. Chase reactions involved dilution of the UBC12˜[^FAM]-Nedd8 thioester conjugate to 40 nM in 50 mM Tris, 50 mM NaCl, 50 mM EDTA, 0.5 mg/mL BSA, pH 6.8. […] Fluorescent gels were visualized by scanning on a Typhoon imager (GE).

DCN1-UBC12 interaction = DCN1-UBC12 interaction (Homo sapiens (Human), UniProt Q96GG9); experiment: biochemical; type: binding; conditions: for inhibition of the DCN1-UBC12NAc interaction: TR-FRET assay
DCN1-UBC12 interaction, sequence (Q96GG9 60-248 limits assumed): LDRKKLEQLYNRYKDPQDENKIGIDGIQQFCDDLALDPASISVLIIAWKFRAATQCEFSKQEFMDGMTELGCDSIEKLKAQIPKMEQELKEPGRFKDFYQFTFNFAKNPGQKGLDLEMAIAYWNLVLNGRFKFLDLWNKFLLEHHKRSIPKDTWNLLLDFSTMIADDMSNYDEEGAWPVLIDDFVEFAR

U-2 OS cells = experiment: Electron microscopy of compound treated cells; type: cell-based
endosome maturation = experiment: Endosome maturation (LAMP1 positive vesicles) imaging; type: cell-based
[2] = type: in vitro ADME; conditions: Table 10
Method: Test compound stock (10 mM in DMSO, 3 μL) was mixed with citrate phosphate buffered saline (597 μL) to make diluted test compound. Diluted test compound (150 μL) was transferred to a UV plate (pION Inc., Woburn, Mass.) and the UV spectrum (250 nm-500 nm) was read as the reference plate. Each well of the donor plate in a PAMPA sandwich plate (pION Inc., Woburn, Mass.) contained a filter that was painted on one side with 4 μL GIT lipid (pION Inc., Woburn, Mass.) to form a membrane. Each well in the acceptor plate in a PAMPA sandwich, preloaded with magnetic stir bars, was filled with acceptor solution buffer (200 pION Inc., Woburn, Mass.). The donor plate was filled with diluted test compound (180 The PAMPA sandwich was assembled by placing the donor plate over the acceptor plate. The combined PAMPA plate was placed on a pIon Gut-Box™, a stirring apparatus that allows equilibrium to be reached quicker. Aqueous Boundary Layer of the pIon Gut-Box™ was set to 40 μm and the compounds stirred for 30 minutes. The UV spectrum (250 nm-500 nm) of the donor and the acceptor were read. The permeability coefficient was calculated using PAMPA evolution 96 command software (pION Inc., Woburn, Mass.) based on the whole spectrum measured from the reference plate, the donor plate, and the acceptor plate. All compounds were tested in triplicates.

physchem = conditions: aqueous buffer, kinetic from dmso stock
Method: Solubility assays were carried out on a Biomek FX lab automation workstation (Beckman Coulter, Inc., Fullerton, Calif.) using μSOL Evolution software (pION Inc., Woburn, Mass.). […] Compound stock (10 mM in DMSO, 10 μL) was added to 1-propanol (190 μL) to make a reference stock plate. […] Test compound stock (10 mM, 6 μL) was added to buffer (594 μL) in a 96-well storage plate and mixed. […] The suspension was then filtered through a 96-well filter plate (pION Inc., Woburn, Mass.). […] Calculation was carried out by μSOL Evolution software based on the AUC (area under curve) of UV spectrum of the sample plate and the reference plate. All compounds were tested in triplicate.

HCC95 cancer cells = experiment: Cullin neddylation in cancer cells (cell lysis and western blot); type: cell-based
Method: Cell pellets harvested from a 6 well dish were resuspended in 30-40 μL of lysis buffer (50 mM Tris, 150 mM NaCl, 0.5% NP-40, 0.1% SDS, 6.5 M Urea, 2 mM 1,10-orthophenanthroline, 1× Halt Protease and Phosphatase inhibitor cocktail (ThermoFisher), 0.25 kU Universal Nuclease (ThermoFisher), pH 7.5). Cell pellet suspensions were incubated on ice for 25 minutes with occasional mixing by pipetting up and down. Lysates were cleared by centrifugation at 13 K rpm for 20 minutes and the supernatant was removed as total cell lysate sample. Protein concentration of the cell lysate was determined by BCA assay (Pierce) using BSA as a control. Cell lysates were diluted into 2×SDS-PAGE sample buffer such that 25 μg of total protein was loaded per well. […] Primary antibodies were prepared in blocking buffer and incubated with membranes overnight at 4° C. with rocking. Membranes were extensively washed in 1×TBS, 0.1% Tween-20. Secondary antibodies were prepared in blocking buffer according to the manufactures recommendations and incubated with membranes for 1 hour at room temperature. After extensive washing the membranes were developed with SuperSignal West Pico Chemiluminescent substrate (ThermoFisher) and developed by film exposure (HyBlot CL, Denville scientific).

HCC95 cells = experiment: Soft agar anchorage independent growth assay; type: cell-based; conditions: 10 μM
[3] = Seven day spermatogenesis study; type: in vivo; conditions: for Weight: oral gavage, B.I.D.; for Motility / Sperm Count / Viability (%): oral gavage B.I.D.
[4] = preliminary experiment
in vivo = conditions: for concentration at 3 day / concentration at 7 day / concentration at 24.4 h / concentration at […] / concentration at 1 h: male; for concentration at 3 day: Day 3; for concentration at 7 day: Day 7
[5] = Table 10, R101 series, read-out: IC50 (μM) (TR-FRET)
[6] = Plasma Concentration (μM), 50 mg/kg
[7] = Plasma Concentration (μM), 100 mg/kg
[8] = Plasma Concentration, Repeat Dose (0 and 7.5 hr)
[9] = Plasma Concentration, Single Dose (0 hr)
[10] = Testis Concentration (μM), 50 mg/kg
[11] = Testis Concentration (μM), 100 mg/kg
[12] = Testis Concentration, Repeat Dose (0 and 7.5 hr)
[13] = Testis Concentration, Single Dose (0 hr)

With `Cc1cccc(C(=O)NC2C(=O)Nc3c(c(C)nn3-c3ccccc3)C2c2ccc(F)cc2)c1` (centres unmarked) [F1] the “inhibition of labeled NEDD8 transfer from UBC12 to CUL2CTD-RBX2” value (shortened to “inhibition of labeled NEDD8 transfer”) [1] was “dose-dependent inhibition”.

With `O=C(Nc1cccc(C(F)(F)F)c1)NC1CCN(Cc2ccccc2)CC1` [B7, 1-(1-Benzylpiperidin-4-yl)-3-(3-(Trifluoromethyl)Phenyl)Urea] the “inhibition of the DCN1-UBC12NAc interaction” value (DCN1-UBC12 interaction) was “dose-dependent inhibition”, the “inhibition of DCN1 dependent neddylation” value ([1]; dependence on presence of DCN1) was “specifically inhibits DCN1 dependent nedylation” and the “inhibition of labeled NEDD8 transfer” value [1] was “dose-dependent inhibition”.

For `C=CC(=O)NCc1cccc(CN(C(=O)Nc2cccc(C(F)(F)F)c2)C2CCN(C(C)CCC)CC2)c1` (centres unmarked) [A3], the IC50 (DCN1-UBC12 interaction; read-out: TR-FRET IC50) was 0.018 µM and the “vacuolar structures by electron microscopy” value (“vacuolar structures” below) (U-2 OS cells) was “presence of large vacuolar structures”.

In the case of `CCCCN1CCC(N(Cc2ccc3c(c2)OCO3)C(=O)Nc2cc(F)cc(C(F)(F)F)c2)CC1` [A83], the IC50 (DCN1-UBC12 interaction; read-out: TR-FRET IC50) is reported as 0.901 µM and the “effect on endosome maturation” value (endosome maturation; 3 μM on cells) is reported as “affect endosome maturation”.

With `CCCN1CCN(C(=O)c2cnn(-c3nccc(-c4cccs4)n3)c2C(C)C)CC1` [E1, (5-Isopropyl-1-(4-(Thiophen-2-yl)Pyrimidin-2-yl)-1H-Pyrazol-4-yl)(4-Propylpiperazin-1-yl)Methanone] the “inhibition of the DCN1-UBC12NAc interaction” value (DCN1-UBC12 interaction) was “dose-dependent inhibition”, the IC50 (DCN1-UBC12 interaction; Table 6, commercial compounds, read-out: TR-FRET IC50) was 1.07 µM and the “inhibition of labeled NEDD8 transfer” value [1] was “dose-dependent inhibition”.

With `O=C(Nc1cccc(C(F)(F)F)c1)N(Cc1ccccc1)C1CCN(Cc2ccc3c(c2)OCCO3)CC1` [compound 27] the IC50 (DCN1-UBC12 interaction; [5]) was 7.3 µM, the “Pampa (×10^−6 cm/s)” value [2] was >2200 ×10^−6 cm/s and the solubility kinetic (physchem) was 1 ± 1.3 µM (≈ 0.526 µg/mL).

For `O=C(Nc1cccc(C(F)(F)F)c1)N(Cc1ccccc1)C1CCN(Cc2ccc3c(c2)OCO3)CC1` [compound 26], the IC50 (DCN1-UBC12 interaction; [5]) was 7 µM, the “Pampa (×10^−6 cm/s)” value [2] was >2200 ×10^−6 cm/s and the solubility kinetic (physchem) was under 0.1 µM.

With `CCOc1cc(CN2CCC(N(Cc3ccccc3)C(=O)Nc3cccc(C(F)(F)F)c3)CC2)cc(Cl)c1O` [compound 25] the “Pampa (×10^−6 cm/s)” value [2] was 110 ± 190 ×10^−6 cm/s and the solubility kinetic (physchem) was 0.4 ± 0.1 µM (≈ 0.225 µg/mL).

For `O=C(Nc1cccc(C(F)(F)F)c1)N(Cc1ccccc1)C1CCN(Cc2cccnc2)CC1` [compound 23], the IC50 (DCN1-UBC12 interaction; [5]) was 12 µM, the “Pampa (×10^−6 cm/s)” value [2] was >2200 ×10^−6 cm/s and the solubility kinetic (physchem) was 30 ± 1.1 µM (≈ 14.1 µg/mL).

With `CCCC(C)N1CCC(N(Cc2ccccc2)C(=O)Nc2cccc(C(F)(F)F)c2)CC1` (centres unmarked) [A15, 1-Benzyl-1-(1-(Pentan-2-yl)Piperidin-4-yl)-3-(3-(Trifluoromethyl)Phenyl)Urea] the “effect on endosome maturation” value (endosome maturation; 10 μM on cells) was “affect endosome maturation” and the “vacuolar structures” value (U-2 OS cells) was “presence of large vacuolar structures”.

With `C=CC(=O)Nc1cccc(CN(C(=O)Nc2cccc(C(F)(F)F)c2)C2CCN(C(C)CCC)CC2)c1` (centres unmarked) [A18] the IC50 (DCN1-UBC12 interaction; read-out: TR-FRET IC50) was 0.111 µM, the “levels of neddylated Cullins / cullin neddylation” value (HCC95 cancer cells) was “reduce the levels of neddylated Cullins; also recorded: selectively inhibit cullin neddylation” and the anchorage independent growth (HCC95 cells) was “inhibit the anchorage independent growth of HCC95 cells”.

With `CCCCN1CCC(N(Cc2ccccc2)C(=O)Nc2ccc(Cl)c(Cl)c2)CC1` [A7] the “levels of neddylated Cullins / cullin neddylation” value (HCC95 cancer cells) was “reduce the levels of neddylated Cullins; also recorded: selectively inhibit cullin neddylation”, the “vacuolar structures” value (U-2 OS cells) was “presence of large vacuolar structures” and the anchorage independent growth (HCC95 cells) was “inhibit the anchorage independent growth of HCC95 cells”. The Weight ([3]; 50 mpk) was 146.3 ± 27.7 mg, the Weight ([3]; 100 mpk) was 150.1 ± 18.9 mg and the Motility ([3]; animal 50 mpk-1) was “Stationary”. The “Sperm Count” value ([3]; animal 50 mpk-1) was “Low”, the “Viability (%)” value ([3]; animal 50 mpk-1) was under 20% and the Motility ([3]; animal 50 mpk-2) was “Stationary”. The “Sperm Count” value ([3]; animal 50 mpk-2) was “Low”, the “Viability (%)” value ([3]; animal 50 mpk-2) was 0% and the Motility ([3]; animal 50 mpk-3) was “Good, erratic”. For the same compound, the “Sperm Count” value ([3]; animal 50 mpk-3) was “Normal”, the “Viability (%)” value ([3]; animal 50 mpk-3) was over 50% and the Motility ([3]; animal 100 mpk-1) was “No movement”. For the same compound, the “Sperm Count” value ([3]; animal 100 mpk-1) was “Low”, the “Viability (%)” value ([3]; animal 100 mpk-1) was under 10% and the Motility ([3]; animal 100 mpk-2) was “Erratic”. For the same compound, the “Sperm Count” value ([3]; animal 100 mpk-2) was “Low”, the “Viability (%)” value ([3]; animal 100 mpk-2) was under 5% and the Motility ([3]; animal 100 mpk-3) was “Limited”. The “Sperm Count” value ([3]; animal 100 mpk-3) was “Low”, the “Viability (%)” value ([3]; animal 100 mpk-3) was under 10% and the maximum serum concentration [4] was 1.5 to 3 µM. For the same compound, the half-life (in vivo) was 240 to 300 min, the concentration at 3 day (in vivo; [6]) was 2.7 ± 2.4 µM and the concentration at 7 day (in vivo; [6]) was 1.7 ± 1.2 µM. The concentration at 3 day (in vivo; [7]) was 2.4 ± 1.2 µM, the concentration at 7 day (in vivo; [7]) was 1.4 ± 0.6 µM and the concentration at 24.4 h (in vivo; [8]) was 620 ± 160 nM. The concentration at […] (in vivo; [8]) was 4.8 ± 1.3 µM, the concentration at 1 h (in vivo; [9]) was 3700 ± 950 nM and the concentration at 24.4 h (in vivo; [9]) was 470 ± 320 nM. The concentration at 3 day (in vivo; [10]) was 11.6 ± 3.4 µM, the concentration at 7 day (in vivo; [10]) was 8.25 ± 4.1 µM and the concentration at 3 day (in vivo; [11]) was 25.9 ± 11.1 µM. For the same compound, the concentration at 7 day (in vivo; [11]) was 31.2 ± 12.8 µM, the concentration at 24.4 h (in vivo; [12]) was 6200 ± 5300 nM and the concentration at […] (in vivo; [12]) was 16.7 ± 3.1 µM. It also gave a concentration at 1 h (in vivo; [13]) of 2100 ± 740 nM and a concentration at 24.4 h (in vivo; [13]) of 4400 ± 3300 nM.

With `O=C(Nc1cccc(C(F)(F)F)c1)N(Cc1ccccc1)C1CCN(Cc2ccc(F)cc2)CC1` [compound 24] the IC50 (DCN1-UBC12 interaction; [5]) was 9.2 µM, the “Pampa (×10^−6 cm/s)” value [2] was >2200 ×10^−6 cm/s and the solubility kinetic (physchem) was 0.9 ± 0.1 µM (≈ 0.437 µg/mL).
